Measurements: patent publication US20240165129A1, “METHODS OF TREATING PAIN AND DEPRESSION” (priority 2022, published 2024)
“Also recorded” adds a separate entry of the source. Where two headings read alike, the source gives them in different places.

Key:
[1] = target: T1, homomeric ASIC1a channels (Homo sapiens, UniProt P78348); format: cell-based
T1 construct: expressed in transfected cells
T1 sequence (P78348 1-528): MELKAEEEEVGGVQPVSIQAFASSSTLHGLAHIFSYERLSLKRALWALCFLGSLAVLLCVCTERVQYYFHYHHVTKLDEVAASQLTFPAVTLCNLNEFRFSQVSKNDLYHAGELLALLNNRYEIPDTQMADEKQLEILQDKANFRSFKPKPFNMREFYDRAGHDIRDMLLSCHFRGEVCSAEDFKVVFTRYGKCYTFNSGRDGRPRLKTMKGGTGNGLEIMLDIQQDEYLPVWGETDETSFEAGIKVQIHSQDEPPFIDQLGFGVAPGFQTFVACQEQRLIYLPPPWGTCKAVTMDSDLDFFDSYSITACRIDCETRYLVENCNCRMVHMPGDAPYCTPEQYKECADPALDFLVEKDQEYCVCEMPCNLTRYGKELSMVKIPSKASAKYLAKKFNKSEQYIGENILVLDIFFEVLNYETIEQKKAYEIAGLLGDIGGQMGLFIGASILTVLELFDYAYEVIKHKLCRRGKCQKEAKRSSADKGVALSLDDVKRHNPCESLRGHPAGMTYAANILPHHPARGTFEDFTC

[2] = test system: ASIC currents (ASIC1a-like) in cortical neurons; experiment: Patch-clamp recording of ASIC (ASIC1a-like) currents in primary cultured mouse cortical neurons; format: cell-based
[3] = test system: mice brain after MCAO; details: mouse, in vivo
[4] = test system: corticosterone-induced depression-like behaviors in mice; experiment: Mouse model of depression induced by repeated corticosterone injections; format: in vivo; details: 12 mg/kg i.p. daily, corticosterone 40 mg/kg i.p. for 21 days
Protocol: Based on the fact that Triol inhibits ASIC1a, Triol can have anti-depression activity. […] A mouse model of depression induced by repeated corticosterone injections is used. Depression-like behaviors are induced by repeated administration of corticosterone (40 mg/kg, i.p.), once a day for 21 days in mice. Mice arerandomly assigned to 4 experimental groups (n=10/group). Control, corticosterone, corticosterone +Vehicle (20% HP-β-CD) and corticosterone+ Triol (12 mg/kg, i.p.). Triol is administered daily. The sucrose consumption test, open-field test (OFT), tail suspension test (TST), and forced swimming test (FST) are used to evaluate the therapeutic effect of Triol.

[5] = test system: mice (depression-like behavior); experiment: Forced swim test; format: in vivo, mouse
[6] = test system: mice (depression-like behavior); experiment: Tail suspension test; format: in vivo, mouse
Protocol: This test is performed by the Tennessee Mouse Genome Consortium (tnmouse.org/neuromutagenesis/behavioral). Mice are suspended by the tail from a ledge ˜60 cm from the ground with adhesive tape. Immobility is defined as the absence of movement and is scored over a 6—min trial.

[7] = test system: mice (depression-like behavior); experiment: Sucrose preference and chronic (unpredictable) mild stress; format: in vivo, mouse
Protocol: Sucrose preference is assessed in individually housed, stressed and unstressed mice. Briefly, two bottles (one 8% sucrose and one water) are placed in each cage for 3 d; 2 d to habituate and 1 d to assess sucrose preference. The locations of the bottles are rotated each 24-h period. At the beginning and end of the final 12-h period both bottles are weighed, and sucrose preference is defined as sucrose solution consumed/total liquid consumed×100%. Unstressed mice only undergo the 3 d sucrose preference assessment. Stressed mice also undergo 6 d of unpredictable stressors in the following order: restraint (3 h), wetted bedding (12 h), restraint (3 h), 45° angle cage tilt (12 h), paired housing with an unfamiliar mouse (1 h), exposure to a predator odor (1 h) (trimethylthiazoline, Pherotech International). Sucrose preference is then assessed during the final overnight period as described above.

[8] = test system: primary cultured mouse cortical neurons; details: pH 6.0, n=7-8
[9] = test system: stroke; details: in vivo; cited from earlier work
[10] = test system: Sprague-Dawley rats (CFA-induced pain); experiment: CFA rat pain model, paw pressure (vocalization) and mechanical hypersensitivity tests
Protocol: Male Sprague-Dawley rats (150-175 g) are acclimatized for a week before testing. Rats are housed in a controlled room with a 12-hour light/dark cycle, with free access to food and water. Rats are housed 4 per cage except after the bilateral implantation experiment (2 per cage and individually following surgery). Pain is induced by a single unilateral intra-articular injection of 50 μl complete Freund's adjuvant (CFA, heat-killed Mycobacterium 2 mg/ml) in the right hindpaw under isoflurane (4%) anaesthesia. Sham rats are injected with 50 μl of vehicle in the same conditions. Behavioral experiments are performed 14-16 days after pain induction, when rats weighed between 260 to 320 g. […]
The effect of Triol (0.05 μg/0.5 μl/side) 15 min before the behavioral tests is evaluated in sham and Pain rats, 14 to 16 days following pain induction. The behavior of each rat is then assessed in the different tests (i.e., social interaction or elevated plus maze for anxiety, and paw pressure or paw immersion for pain, see below).
Mechanical hypersensitivity in sham and Pain animals is assessed with an analgesiometer (paw pressure test). Nociceptive thresholds are measured by applying increased pressure to the ipsilateral ankle of unrestrained rats until a vocalisation is obtained. […] Vocalization threshold is assessed at baseline and 15, 25 and 45 min following Triol, mambalgin-1 or saline administration.

[11] = after 30 min washout (data not shown)
[12] = 10 μM, before and after perfusion for 5 min

With CC(C)CCC[C@@H](C)[C@H]1CC[C@H]2[C@@H]3C[C@@H](O)[C@@]4(O)C[C@@H](O)CC[C@]4(C)[C@H]3CC[C@]12C [Triol, cholestane-3β, 5α, 6β-triol] the inhibition at 1 µM ([1]; 1 μM Triol, within 5 minutes of application, pH drop 7.4 to 6.0, n=5, read-out: inhibition of ASIC1a currents) was ~20%, the inhibition at 10 µM ([1]; 10 μM Triol, within 5 minutes of application, pH drop 7.4 to 6.0, n=5, read-out: inhibition of ASIC1a currents) was ~40% and the inhibition at 10 µM ([1]; 10 μM, once/one min, within 5 min of recording, read-out: inhibition of ASIC current, higher stimulatory frequency) was ~40%. For the same compound, the inhibition at 10 µM ([1]; 10 μM, once/two min, within 5 min of recording, read-out: inhibition of ASIC1a currents, lower stimulatory frequency) was ~20%, the “reversibility of ASIC1a inhibition” value [1, 11] was “irreversible” and the “effect on current-voltage relationship (IV)” value [2, 12] was “does not affect the current-voltage relationship”. The “shift in the pH dose-response of ASIC peak currents” value [2, 12] was “not a significant shift”, the “decrease of ASIC currents in cortical neurons” value ([2]; 10 μM, within 5 min of application/perfusion) was ~40% and the “reversibility of ASIC current inhibition in cortical neurons” value [2, 11] was “irreversible”. For the same compound, the “voltage dependence of inhibitory activity” value ([2]; holding potential −60 mV vs −30 mV) was “no significant change in the inhibitory activity”, the “infarct volume, Triol in the presence of PcTx-1” value [3] was “no additional reduction” and the “protection against ischemic brain injury” value [3] was “didn't show additional protection; also recorded: A similar result; also recorded: significant protection”. For the same compound, the “antidepressant activity (sucrose consumption, OFT, TST, FST)” value [4] was “alleviating corticosterone-induced depression-like behaviors”, the “depression-like behavior in the forced swim test” value [5] was “decreased levels of depression-like behavior” and the “depression-like behavior in the tail suspension test” value [6] was “decreased levels of depression-like behavior”. For the same compound, the “depression-like behavior following unpredictable mild stress” value [7] was “decreased levels of depression-like behavior”, the “acid-induced cytotoxicity (LDH release)” value [8] was “significantly decreased” and the “therapeutic time window for stroke treatment” value [9] was “at least 4 h”. For the same compound, the “effects in the pain tests relative to commonly used pain relief drugs” value [10] was “independent of and additive to” and the “pain-related behavior in vocalization and mechanical hypersensitivity tests” value [10] was “decreased levels of pain-related behavior”.
